Source: the supplement of paper PMC13380429

Experiments:
Settings in all cases: 72 h
Caco-2 [1] = experiment: relative viability EC50 (midpoint between 100% and the lowest measured viability); higher = less toxic
Calu-3 [2] = experiment: as above
HepG2 [3] = experiment: as above
U2OS [4] = experiment: as above
Vero E6 [5] = experiment: as above
Caco-2 [6] = experiment: cell viability relative to DMSO; higher = less toxic
Calu-3 [7] = experiment: as above
HepG2 [8] = experiment: as above
U2OS [9] = experiment: as above
Vero E6 [10] = experiment: as above
Caco-2 [11] = experiment: drug sensitivity score (DSS) for viability; higher = more toxic; extreme values may be limits of the assay
Calu-3 [12] = experiment: as above
HepG2 [13] = experiment: as above
U2OS [14] = experiment: as above
Vero E6 [15] = experiment: as above

Row | SMILES | relative viability EC50 (Caco-2 [1]) | relative viability EC50 (Calu-3 [2]) | relative viability EC50 (HepG2 [3]) | relative viability EC50 (U2OS [4]) | relative viability EC50 (Vero E6 [5]) | cell viability (Caco-2 [6]; 1 nM) | cell viability (Caco-2 [6]; 10 nM) | cell viability (Caco-2 [6]; 100 nM) | cell viability (Caco-2 [6]; 1000 nM) | cell viability (Caco-2 [6]; 10000 nM) | cell viability (Calu-3 [7]; 1 nM) | cell viability (Calu-3 [7]; 10 nM) | cell viability (Calu-3 [7]; 100 nM) | cell viability (Calu-3 [7]; 1000 nM) | cell viability (Calu-3 [7]; 10000 nM) | cell viability (HepG2 [8]; 1 nM) | cell viability (HepG2 [8]; 10 nM) | cell viability (HepG2 [8]; 100 nM) | cell viability (HepG2 [8]; 1000 nM) | cell viability (HepG2 [8]; 10000 nM) | cell viability (U2OS [9]; 1 nM) | cell viability (U2OS [9]; 10 nM) | cell viability (U2OS [9]; 100 nM) | cell viability (U2OS [9]; 1000 nM) | cell viability (U2OS [9]; 10000 nM) | cell viability (Vero E6 [10]; 1 nM) | cell viability (Vero E6 [10]; 10 nM) | cell viability (Vero E6 [10]; 100 nM) | cell viability (Vero E6 [10]; 1000 nM) | cell viability (Vero E6 [10]; 10000 nM) | drug sensitivity score (Caco-2 [11]) | drug sensitivity score (Calu-3 [12]) | drug sensitivity score (HepG2 [13]) | drug sensitivity score (U2OS [14]) | drug sensitivity score (Vero E6 [15])
1 | COc1cc(O)c2c(c1)C(=O)c1cc(C)cc(O)c1C2=O [rheochrysidin] | > 10 µM | > 10 µM | > 10 µM | > 10 µM | > 10 µM | 100% | 109% | 97.9% | 96.9% | 93.5% | 101% | 104% | 105% | 101% | 96.8% | 92.7% | 106% | 108% | 107% | 109% | 93.4% | 98.8% | 101% | 100% | 93.5% | 98.9% | 102% | 98.5% | 98.8% | 101% | 0 | 0 | 0 | 0 | 0
2 | C1COC(NC(C2CC2)C2CC2)=N1 [rilmenidine] | > 10 µM | > 10 µM | > 10 µM | > 10 µM | > 10 µM | 103% | 100% | 103% | 93.4% | 104% | 98.6% | 82.1% | 109% | 95.8% | 105% | 99.3% | 110% | 97.2% | 100% | 103% | 104% | 97% | 108% | 98.2% | 104% | 95.9% | 99.1% | 95.3% | 101% | 97.4% | 0 | 0 | 0 | 0 | 0
3 | CC(C)c1nc(CN(C)C(=O)N[C@H](C(=O)N[C@@H](Cc2ccccc2)C[C@H](O)[C@H](Cc2ccccc2)NC(=O)OCc2cncs2)C(C)C)cs1 [ritonavir] | > 10 µM | > 10 µM | > 10 µM | > 10 µM | > 10 µM | 97.8% | 94.3% | 96.3% | 100% | 77.5% | 102% | 87% | 93.7% | 102% | 98.6% | 98.6% | 104% | 94% | 107% | 110% | 105% | 97.5% | 98% | 94.5% | 95.4% | 94.4% | 97.5% | 89.4% | 102% | 108% | 0.8 | 0 | 0 | 0 | 0
4 | CC(=O)N[C@@H](CC(=O)O)C(=O)N[C@@H](CCC(=O)O)C(=O)O [spaglumic-acid] | > 10 µM | > 10 µM | > 10 µM | > 10 µM | > 10 µM | 105% | 98.1% | 101% | 94.6% | 101% | 89.7% | 93.3% | 100% | 97.2% | 105% | 101% | 108% | 91.5% | 114% | 95.5% | 101% | 96.2% | 104% | 102% | 102% | 93.6% | 105% | 101% | 102% | 100% | 0 | 0 | 0 | 0 | 0
5 | Nc1ccc(S(=O)(=O)Nc2ccc(Cl)nn2)cc1 [sulfachlorpyridazine] | > 10 µM | > 10 µM | > 10 µM | > 10 µM | > 10 µM | 99.6% | 93.4% | 94.8% | 106% | 106% | 109% | 91% | 98.5% | 104% | 109% | 93% | 105% | 105% | 108% | 107% | 98.8% | 93% | 100% | 102% | 103% | 97.8% | 95.3% | 101% | 97.1% | 103% | 0 | 0 | 0 | 0 | 0
6 | CCCCC1(COC(=O)CCC(=O)O)C(=O)N(c2ccccc2)N(c2ccccc2)C1=O [suxibuzone] | > 10 µM | > 10 µM | > 10 µM | > 10 µM | > 10 µM | 87.1% | 104% | 94% | 91.8% | 84.1% | 104% | 101% | 95.2% | 99.2% | 95.6% | 122% | 99.5% | 102% | 103% | 94.6% | 96.4% | 101% | 96.5% | 102% | 95.5% | 110% | 103% | 103% | 92.4% | 102% | 0.2 | 0 | 0 | 0 | 0
